“And” between values parts separate entries of the source, which are not always exact repeats. Identical values can stand only once. Counter-ions that a name gives are not always drawn. Like-named read-outs stand apart in the source and are kept apart here.
Key:
LOXL3 = target: T1, LOXL3 (Homo sapiens, UniProt P58215); assay: LOXL3 enzyme assay (Promega ROS-Glo, cadaverine substrate); type: biochemical
T1 sequence (P58215 26-753): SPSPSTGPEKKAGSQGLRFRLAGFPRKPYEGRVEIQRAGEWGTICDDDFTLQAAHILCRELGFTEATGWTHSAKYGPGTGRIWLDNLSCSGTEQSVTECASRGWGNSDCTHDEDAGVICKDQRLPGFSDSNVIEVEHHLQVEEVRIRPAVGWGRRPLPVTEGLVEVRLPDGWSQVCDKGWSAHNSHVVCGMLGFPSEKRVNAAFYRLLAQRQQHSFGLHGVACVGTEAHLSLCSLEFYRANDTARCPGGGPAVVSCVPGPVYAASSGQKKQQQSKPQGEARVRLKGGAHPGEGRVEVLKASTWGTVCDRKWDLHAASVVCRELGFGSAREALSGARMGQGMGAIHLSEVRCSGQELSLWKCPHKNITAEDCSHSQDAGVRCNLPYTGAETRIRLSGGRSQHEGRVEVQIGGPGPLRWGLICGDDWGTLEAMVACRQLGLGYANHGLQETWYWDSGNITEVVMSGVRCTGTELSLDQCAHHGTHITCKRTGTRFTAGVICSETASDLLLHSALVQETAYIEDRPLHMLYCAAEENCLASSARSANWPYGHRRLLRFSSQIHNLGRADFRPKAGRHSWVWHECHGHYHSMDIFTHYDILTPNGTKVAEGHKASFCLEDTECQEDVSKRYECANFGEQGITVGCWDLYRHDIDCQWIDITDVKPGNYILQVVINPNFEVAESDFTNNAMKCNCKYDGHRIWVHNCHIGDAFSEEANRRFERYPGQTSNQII
Procedure: (§1) LOXL2 and LOXL3 were purchased from R&D Systems. LOX, LOXL2, and LOXL3 catalytic activity were determined using the Promega ROS-Glo assay kit with cadaverine dihydrochloride as substrate, BAPN as the reference inhibitor control, a preincubation time of 20 min, 1 h, or 3 h, with nine dilutions from a top concentration of 10 μM or 100 μM.

LOXL2 = target: T2, LOXL2 (Homo sapiens, UniProt Q9Y4K0); assay: LOXL2 enzyme assay (Promega ROS-Glo, cadaverine substrate); type: biochemical; set-up: Activity (LOXL2 activity used in the RVM model data matrix): unit not given here
T2 sequence (Q9Y4K0 26-774): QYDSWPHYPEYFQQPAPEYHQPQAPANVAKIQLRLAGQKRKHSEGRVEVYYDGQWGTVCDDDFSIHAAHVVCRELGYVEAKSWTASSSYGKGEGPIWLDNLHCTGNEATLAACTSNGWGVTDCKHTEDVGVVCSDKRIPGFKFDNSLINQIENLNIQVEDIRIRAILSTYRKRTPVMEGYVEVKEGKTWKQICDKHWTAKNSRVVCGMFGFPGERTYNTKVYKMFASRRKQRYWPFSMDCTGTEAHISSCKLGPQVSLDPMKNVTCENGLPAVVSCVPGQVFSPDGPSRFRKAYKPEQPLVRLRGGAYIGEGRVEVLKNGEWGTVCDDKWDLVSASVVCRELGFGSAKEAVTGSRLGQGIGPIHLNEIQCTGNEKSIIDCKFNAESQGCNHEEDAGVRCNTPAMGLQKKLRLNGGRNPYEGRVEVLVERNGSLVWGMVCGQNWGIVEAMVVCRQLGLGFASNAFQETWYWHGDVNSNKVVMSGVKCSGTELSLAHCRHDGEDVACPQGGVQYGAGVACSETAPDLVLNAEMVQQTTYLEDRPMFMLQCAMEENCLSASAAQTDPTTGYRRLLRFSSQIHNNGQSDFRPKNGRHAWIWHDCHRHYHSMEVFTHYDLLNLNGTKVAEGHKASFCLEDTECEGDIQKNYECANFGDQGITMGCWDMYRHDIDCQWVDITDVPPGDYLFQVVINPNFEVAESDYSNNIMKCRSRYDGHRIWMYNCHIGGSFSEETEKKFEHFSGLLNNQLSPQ

SSAO = target: T3, SSAO (Homo sapiens, UniProt Q16853); type: biochemical
T3 construct: purchased Sigma
T3 sequence (Q16853 1-763): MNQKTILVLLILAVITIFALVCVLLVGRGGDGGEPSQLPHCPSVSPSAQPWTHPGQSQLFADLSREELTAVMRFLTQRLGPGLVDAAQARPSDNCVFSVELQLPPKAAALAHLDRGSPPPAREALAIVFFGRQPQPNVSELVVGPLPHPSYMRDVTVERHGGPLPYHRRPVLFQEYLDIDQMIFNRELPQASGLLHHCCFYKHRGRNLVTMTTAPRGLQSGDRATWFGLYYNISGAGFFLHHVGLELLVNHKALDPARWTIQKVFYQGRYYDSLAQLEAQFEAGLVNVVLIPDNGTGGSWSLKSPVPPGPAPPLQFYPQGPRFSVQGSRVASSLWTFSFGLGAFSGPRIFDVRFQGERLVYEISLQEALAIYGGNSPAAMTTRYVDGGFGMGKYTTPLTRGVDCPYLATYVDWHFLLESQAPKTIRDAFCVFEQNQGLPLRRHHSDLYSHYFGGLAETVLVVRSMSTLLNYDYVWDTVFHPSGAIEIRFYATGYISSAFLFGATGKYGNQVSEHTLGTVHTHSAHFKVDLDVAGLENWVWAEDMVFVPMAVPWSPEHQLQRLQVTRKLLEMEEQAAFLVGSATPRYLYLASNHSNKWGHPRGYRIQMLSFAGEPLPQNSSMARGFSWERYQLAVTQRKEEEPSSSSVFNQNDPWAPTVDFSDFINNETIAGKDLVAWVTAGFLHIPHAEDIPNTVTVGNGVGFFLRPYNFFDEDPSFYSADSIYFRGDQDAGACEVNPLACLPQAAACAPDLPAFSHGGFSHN
Procedure: All amine oxidase assays were performed with concentrations as above. MAO-A and MAO-B enzymes were purchased from Sigma. The catalytic activity of MAO-A and MAO-B was determined using the Promega MAO-Glo assay kit (substrate included), with clorgyline and deprenyl as reference inhibitor controls, respectively. DAO was purchased from Sigma, and the catalytic activity was determined using the Promega ROS-Glo assay kit, with aminoguanidine as the reference inhibitor control. SSAO was purchased from Sigma. SSAO catalytic activity was determined using the Promega MAO-Glo assay kit, with mofegiline as the reference inhibitor control.

LOX = target: T4, LOX (Sus scrofa, UniProt P45845); assay: LOX enzyme assay (Promega ROS-Glo, cadaverine substrate); type: biochemical, pig; details: Table 6; 1 h preincubation
T4 sequence (P45845 1-249): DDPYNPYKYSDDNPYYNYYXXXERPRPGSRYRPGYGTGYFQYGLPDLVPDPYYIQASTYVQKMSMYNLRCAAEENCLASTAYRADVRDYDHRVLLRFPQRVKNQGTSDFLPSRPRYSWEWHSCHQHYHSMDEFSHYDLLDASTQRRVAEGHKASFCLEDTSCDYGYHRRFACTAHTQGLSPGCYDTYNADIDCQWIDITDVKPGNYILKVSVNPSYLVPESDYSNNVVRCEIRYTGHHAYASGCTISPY
Procedure: as §1

CS(=O)(=O)c1cc(-c2ccccc2)cc(S(=O)(=O)c2ccc(CN)s2)c1 [Compound 3a]
IC50 (LOXL3): 13500 nM and 18500 nM

NCc1ccc(S(=O)(=O)c2ccc3ccccc3c2)s1 [Compound 4]
increase in LOXL2 potency on increasing preincubation from 20 min to 1 h (LOXL2): ≤ 5 fold

NCc1ncc(S(=O)(=O)c2ccc3ccccc3c2)s1 [Compound 6]
IC50 (SSAO): 47200 nM and 47100 nM

CNCc1ncc(S(=O)(=O)c2cc(-c3ccccc3)cc(S(C)(=O)=O)c2)s1 [Compound 7b, N-Methyl-1-(5-((5-(methylsulfonyl)-[1,1′-biphenyl]-3-yl)sulfonyl)thiazol-2-yl)methanamine Hydrochloride]
IC50 (LOXL2; read-out: LOXL2, IC50): 68300 nM

CS(=O)(=O)c1cc(-c2ccccc2)cc([S+]([O-])c2cnc(CN)s2)c1 (stereo not drawn) [Compound 7c, (5-((5-(Methylsulfonyl)-[1,1′-biphenyl]-3-yl)sulfinyl)thiazol-2-yl)methanamine Hydrochloride]
IC50 (LOXL2; read-out: LOXL2 IC50): 244 nM and 236 nM

CS(=O)(=O)c1cc(Sc2cnc(CN)s2)cc(-c2ccccc2)c1 [Compound 7d, (5-((5-(Methylsulfonyl)-[1,1′-biphenyl]-3-yl)thio)thiazol-2-yl)methanamine Hydrochloride]
IC50 (LOX): 1310 nM and 1130 nM
IC50 (LOXL2; read-out: LOXL2 IC50): 233 nM

CCCS(=O)(=O)c1cnc(CN)s1 [Compound 10, (5-(Propylsulfonyl)thiazol-2-yl)methanamine Hydrochloride]
Activity (LOXL2 activity used in the RVM model data matrix) (LOXL2): 6.24
IC50 (LOXL2; Table 3, 1 h preincubation, read-out: LOXL2 IC50): 554 nM and 590 nM

CS(=O)(=O)c1cccc(S(=O)(=O)c2cnc(CN)s2)c1 [Compound 13, (5-((3-(Methylsulfonyl)phenyl)sulfonyl)thiazol-2-yl)methanamine Hydrochloride]
IC50 (LOXL2; read-out: LOXL2 IC50): 184 nM and 246 nM

CS(=O)(=O)c1cccc(-c2cnc(CN)s2)c1 [Compound 14, (5-(3-(Methylsulfonyl)phenyl)thiazol-2-yl)methanamine Hydrochloride]
IC50 (LOXL2; read-out: LOXL2 IC50): 414 nM and 394 nM

NCc1ncc(-c2cccc(-c3ccccc3)c2)s1 [Compound 16, (5-([1,1′-Biphenyl]-3-yl)thiazol-2-yl)methanamine Hydrochloride]
IC50 (LOXL2; read-out: LOXL2 IC50): 1750 nM and 1600 nM

CS(=O)(=O)c1cc(-c2ccccc2)cc(-c2cnc(CN)s2)c1 [Compound 17, (5-(5-(Methylsulfonyl)-[1,1′-biphenyl]-3-yl)thiazol-2-yl)methanamine Hydrochloride]
IC50 (LOX): 52000 nM and 46500 nM
Activity (LOXL2 activity used in the RVM model data matrix) (LOXL2): 6.16
IC50 (LOXL2; read-out: LOXL2 IC50): 652 nM and 716 nM

Cc1ccc(-c2cc(S(C)(=O)=O)cc(S(=O)(=O)c3cnc(CN)s3)c2)cc1 [Compound 18, (5-((4′-Methyl-5-(methylsulfonyl)-[1,1′-biphenyl]-3-yl)sulfonyl)thiazol-2-yl)methanamine Hydrochloride]
IC50 (SSAO): 2700 nM and 1300 nM

Cn1cc(-c2cc(Cl)cc(S(=O)(=O)c3cnc(CN)s3)c2)cn1 [Compound 21d, (5-((3-Chloro-5-(1-methyl-1H-pyrazol-4-yl)phenyl)sulfonyl)thiazol-2-yl)methanamine Hydrochloride]
IC50 (LOXL2; Activity column of RVM_model_LOXL2.csv, Type = Data matrix, input activity for the RVM model of LOXL2, read-out: Activity (LOXL2 activity used in the RVM model data matrix) (converted)): 309 nM
IC50 (LOXL2; read-out: LOXL2 IC50): 280 nM

Reference: PMC7073924, “2-Aminomethylene-5-sulfonylthiazole Inhibitors of Lysyl Oxidase (LOX) and LOXL2 Show Significant Efficacy in Delaying Tumor Growth” (Journal of Medicinal Chemistry, 2019)
